We go through 33 compounds from paper PMC2846521 (Journal of chemical information and modeling, 2009).

pIC50, pKd: −log10 of the molar value.

The target of the first assay is T1, Gβ1γ2 (Homo sapiens, UniProt P62873). Nature of the assay: Competition ELISA with the high-affinity SIGK peptide. The note with it: read-out: Median Inhibitory Concentration IC50 (binding inhibitors of SIGK); competition with SIGK peptide in ELISA.
Turning to `O=C(c1ccc([N+](=O)[O-])cc1)C(Br)C(Br)c1ccnc2ccccc12` (centres unmarked) [compound 150289], the pIC50 is 4.37.

For the compound `CN(C)CS/C(N)=N/[C@H](O)C(Cl)(Cl)Cl` [compound 14555], the pIC50 was 4.59.

As for `O=C1c2cc([N+](=O)[O-])ccc2-c2ccc3c4ccc5c6c(ccc(c7ccc1c2c73)c64)C(=O)c1cc([N+](=O)[O-])ccc1-5` [compound 51535], the pIC50 was 5.62.

For `C[N+]1(CC[N+]2(C)CCCC2c2cccnc2)CCCC1c1cccnc1` (centres unmarked) [compound 3284], the pIC50 is 3.58.

On to `C[N+]1(CCN[N+]2(C)CCCCC2)CCc2ccccc2C1` (centres unmarked) [compound 17770], for which the pIC50 is 4.23.

Take `O=C1C(Cl)=C(Nc2ccc(S(=O)(=O)Nc3ccccn3)cc2)C(=O)c2ccccc21` [compound 45382]: the pIC50 is 4.45.

On to `CN(C)C1C(=O)C(C(N)=O)=C(O)C2(O)C(=O)C3=C(O)c4c(O)cccc4C(C)(O)C3CC12` (centres unmarked) [compound 69343], for which the pIC50 is 4.77.

For the compound `NCCNC(=S)S` [compound 83224], the pIC50 is 4.60.

Turning to `CN(CCc1ccccn1)c1ccc2c(c1)C(=O)c1ccccc1-2` [compound 24048], the pIC50 was 3.53.

In the case of `O=C1c2ccccc2C(=O)c2c(NC3CCCCC3)ccc(Nc3ccc(S(=O)(=O)O)cc3)c21` [compound 128437], the pIC50 was 4.62.

As to `COc1ccc(CC[N@+]2(C)COc3cc4oc(=O)cc(C)c4cc3C2)cc1OC` [compound 59275], the pIC50 is 3.71.

Consider `C[C@H]1CCCC2(CC[N+](C)(CCC[N+](C)(C)C)CC2)C1` (some centres unmarked) [compound 95676], for which the pIC50 is 3.74.

Take `Nc1cc(S(N)(=O)=O)ccc1SSc1ccc(S(N)(=O)=O)cc1N` [compound 83217]: the pIC50 was 4.24.

`C[C@]12CC[C@H]3[C@@H](CCC4=CC(=O)CC[C@@]43C)[C@@H]1CC[C@@H]2C(=O)COS(=O)(=O)c1ccc(Br)cc1` [compound 88915]: the pIC50 was 4.32.

With `O=C1c2ccccc2C(=O)c2c(Nc3cc4c5c(ccc6c7ccc8c9c(cc(Nc%10cccc%11c%10C(=O)c%10ccccc%10C%11=O)c(c3c56)c97)-c3ccccc3C8=O)C(=O)c3ccccc3-4)cccc21` [compound 23128], the pIC50 was 4.57.

On to `Cc1ccc(S(=O)(=O)OC2C(C3COC(C)(C)O3)OC3OC(C)(C)OC32)cc1` (centres unmarked) [compound 14163], for which the pIC50 is 5.23.

Consider `Nc1ccc(-c2ccc(Nc3cc(S(=O)(=O)O)c(N)c4c3C(=O)c3ccccc3C4=O)cc2)c(S(=O)(=O)O)c1` [compound 125910], for which the pIC50 was 4.74.

As for `O=C(O)[C@@H]1[C@H](C(=O)O)[C@]2(Cl)C(Cl)=C(Cl)[C@@]1(Cl)C2(Cl)Cl` [compound 22225], the pIC50 is 4.94.

`N=C1C(O)C2(I)c3ccccc3N3C(=N)C(O)C4c5ccccc5N1C4C32` (centres unmarked) [compound 118176]: the pIC50 was 5.09.

For `CC1C2C=CC1C(c1c3ccc(=O)c(O)c-3oc3c(O)c(O)ccc13)C2C(=O)O` (centres unmarked) [compound 119913], the pIC50 was 6.15.

For the compound `O=C(O)/C=C/c1c2ccc(=O)c(O)c-2oc2c(O)c(O)ccc12` [compound 119911], the pIC50 is 6.70.

Regarding `Nc1ccc(S(=O)(=O)c2ccc(NCN3C(=O)NC(=O)C(=O)C3=O)cc2)cc1` [compound 34238], the pIC50 is 4.38.

In the case of `Cc1cc(O)c(-c2cc(O)c(C)cc2O)cc1O` [compound 2805], the pIC50 was 5.15.

Turning to `Nc1c(S(=O)(=O)O)cc(Nc2cccc(S(N)(=O)=O)c2)c2c1C(=O)c1ccccc1C2=O` [compound 117079], the pIC50 is 4.25.

Consider `C[N+]1(CCC[N+]2(C)C[C@H]3[C@H](C2)[C@H]2C=C[C@@H]3CC2)CCOCC1` (some centres unmarked) [compound 90831], for which the pIC50 was 4.03.

Consider `O=C(O)C1CCCCC1c1c2ccc(=O)c(O)c-2oc2c(O)c(O)ccc12` (centres unmarked) [compound 119910], for which the pIC50 is 6.70.

Regarding `CCC(=O)OCN1C(=O)C=CC1=O` [compound 19630], the pIC50 was 4.27.

On to `O=C1c2ccccc2C(=O)c2c1ccc(C(=O)O)c2-c1ccc2ccccc2c1` [compound 9608], for which the pIC50 is 4.78.

Regarding `CN1C[C@H](c2ccccc2)C(O)([C@]2(c3ccccc3)CN(C)C[C@@H](c3ccccc3)C2=O)[C@H](c2ccccc2)C1` (some centres unmarked) [compound 39207], the pIC50 is 4.97.

For the compound `O=C(O)c1c(Br)c(Br)c(Br)c(Br)c1C1c2ccc(O)cc2Oc2cc(O)ccc21` [compound 119889], the pIC50 was 5.37.

For `CC[N+](C)(CC)CCN1C(=O)c2ccccc2S1(=O)=O` [compound 45126], the pIC50 was 4.16.

Turning to `N=C(N)SCCN1CCCCC1` [compound 121771], the pIC50 is 3.70.

In a further assay the target is T1, Gβ1γ2.
Test: not given
The note with it: surface plasmon resonance; cited from earlier work.
Consider `O=C1OC2(c3ccccc31)c1ccc(O)c(O)c1Oc1c2ccc(O)c1O` [gallein], for which the pKd is about 6.40.

The test system of a further assay is phosphoinositide 3-kinase γ (PI3K).
Test: not given
Particulars: cited from earlier work.
As to `O=C(O)C1CCCCC1c1c2ccc(=O)c(O)c-2oc2c(O)c(O)ccc12` (centres unmarked) [compound 119910], the “Gβγ-dependent activation of phosphoinositide 3-kinase γ (PI3K)” value is “inhibit”.

In a further assay the test system is PI3K.
Test: not given
The note with it: cited from earlier work.
Take `O=C1OC2(c3ccccc31)c1ccc(O)c(O)c1Oc1c2ccc(O)c1O` [gallein]: the PI3K activation entry was “inhibit”.

A further assay concerns neutrophil.
Test: not given
The note with it: cited from earlier work.
For `O=C1OC2(c3ccccc31)c1ccc(O)c(O)c1Oc1c2ccc(O)c1O` [gallein], the chemoattractant-dependent neutrophil migration result is on record as “inhibit”.

Test system in a further assay: not given
Test: not given
Particulars: mice; cited from earlier work.
As for `O=C1OC2(c3ccccc31)c1ccc(O)c(O)c1Oc1c2ccc(O)c1O` [gallein], the carrageenan-induced inflammation entry was “lessen”.

The test system of a further assay is phospholipase C.
Test: not given
The note with it: cited from earlier work.
As for `O=C(O)C1CCCCC1c1c2ccc(=O)c(O)c-2oc2c(O)c(O)ccc12` (centres unmarked) [compound 119910], the “Gβγ-dependent activation of phospholipase C” value is listed as “inhibit”.
